# Literature values, collected in US20070253995A1, “Drug Delivery Methods and Devices for Treating Stress Urinary Incontinence” (Medtronic, Inc., priority 2006, published 2007).
# Tested on: women with stress urinary incontinence
# Details: oral formulation
smiles,measurement,setting,value
CNCC[C@H](Oc1cccc2ccccc12)c1cccs1 [duloxetine],time for side effects to disappear after therapy initiation,,1 to 4 weeks
same,efficacy in treating stress urinary incontinence,"Phase III clinical trial, women",effective
same,"side effects (mostly centrally mediated: nausea, headache, insomnia, dry mouth, dizziness, fatigue)",some patients,significant side effects in some patients
